20 molecules from patent US8563714B2, “Bridged spiro [2.4] heptane derivatives as ALX receptor and/or FPRL2 agonists” (Actelion Pharmaceuticals Ltd., priority 2009, dated 2013) can be followed below.

One experiment has as its target T1, human ALX receptor (Homo sapiens, UniProt P25090).
T1 construct: expressed in transfected cells; host or cells: HEK293 (HEK293-hALXR-Gα16)
T1 sequence (P25090 1-351): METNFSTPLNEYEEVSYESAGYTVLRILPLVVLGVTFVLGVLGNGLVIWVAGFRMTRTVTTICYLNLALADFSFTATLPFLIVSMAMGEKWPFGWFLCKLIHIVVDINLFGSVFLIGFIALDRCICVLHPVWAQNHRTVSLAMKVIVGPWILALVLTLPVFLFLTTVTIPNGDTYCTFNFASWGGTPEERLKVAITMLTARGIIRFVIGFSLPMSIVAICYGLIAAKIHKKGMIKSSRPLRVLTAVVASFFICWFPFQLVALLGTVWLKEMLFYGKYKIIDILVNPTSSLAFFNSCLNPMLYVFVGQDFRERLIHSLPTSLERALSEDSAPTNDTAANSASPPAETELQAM
The experiment is described as follows: Intracellular calcium measurements (FLIPR), agonistic activity in HEK293-hALXR-Gα16 cells. Type of experiment: cell-based. The note with it: Fluo-4 calcium FLIPR, normalized to WKYMVm 10 nM. The gist of the method: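 HEK293 cells expressing hALXR and Gα16 were loaded with 1 μM Fluo-4 AM and 20 mM HEPES for 60 min at 37°C, then exposed to serially diluted compound. FLIPR fluorescence was read at ex 488/em 540 nm. Baseline-subtracted peak responses were normalized to 10 nM WKYMVm.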

The next experiment concerns the target T2, human FPRL2 (Homo sapiens, UniProt P25089).
T2 construct: expressed in transfected cells; host or cells: HEK293 (HEK293-hFPRL2-Gα16)
T2 sequence (P25089 1-353): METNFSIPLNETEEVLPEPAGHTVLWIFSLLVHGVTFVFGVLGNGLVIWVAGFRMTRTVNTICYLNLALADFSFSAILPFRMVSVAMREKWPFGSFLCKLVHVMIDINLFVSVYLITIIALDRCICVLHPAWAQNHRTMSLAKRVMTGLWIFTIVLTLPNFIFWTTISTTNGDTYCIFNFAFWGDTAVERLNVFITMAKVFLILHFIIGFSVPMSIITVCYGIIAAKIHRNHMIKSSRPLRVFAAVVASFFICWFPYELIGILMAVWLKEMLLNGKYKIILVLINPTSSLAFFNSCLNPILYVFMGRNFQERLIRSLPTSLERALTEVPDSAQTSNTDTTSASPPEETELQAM
The experiment is described as follows: Intracellular calcium measurements (FLIPR), agonistic activity in HEK293-hFPRL2-Gα16 cells. Type of experiment: cell-based. The following applies: Fluo-4 calcium FLIPR, normalized to GLY14-Humanin 100 nM. The gist of the method:
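Peak values after baseline subtraction are expressed relative to 100 nM Gly14-Humanin; compounds diluted in assay buffer from 10 mM DMSO stocks.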
In general terms: A change in cytosolic calcium serves as a functional read-out for many receptors and channels.

With `CC(C)(C)OC(=O)N1CCC(CNC(=O)[C@H]2[C@H](C(=O)Nc3ccc(Br)cc3)[C@@H]3C=C[C@H]2C32CC2)CC1` (racemic) [Example 92, (5R*)—N^5-(4-Bromophenyl)-(6R*)—N^6—(N-tert-butoxycarbonyl-piperidin-4-yl-methyl)-(4S*,7R*)-[4,7-ethenylene-spiro[2.4]heptane]-5,6-dicarboxamide], the results for the EC50 at human ALX receptor and at human FPRL2 were 204 nM and 2670 nM, respectively.
The matching figures for `O=C(NC1CCCCC1)[C@H]1[C@H](C(=O)Nc2ccc(Br)cc2)[C@@H]2C=C[C@H]1C21CC1` (racemic) [Example 93, (5R*)—N^5-(4-Bromophenyl)-(6R*)—N^6-(cyclohexyl)-(4S*,7R*)-[4,7-ethenylene-spiro[2.4]heptane]-5,6-dicarboxamide]: 216 nM and > 25000 nM.
The corresponding values for `CC(C)(C)OC(=O)N1CCC(NC(=O)[C@H]2[C@H](C(=O)Nc3ccc(Br)cc3)[C@@H]3C=C[C@H]2C32CC2)CC1` (racemic) [Example 94, (5R*)—N^5-(4-Bromophenyl)-(6R*)—N^6—(N-tert-butoxycarbonyl-piperidin-4-yl)-(4S*,7R*)-[4,7-ethenylene-spiro[2.4]heptane]-5,6-dicarboxamide] are 218 nM and 1040 nM.
The matching figures for `CC(C)(C)OC(=O)NCc1ccc(CNC(=O)[C@H]2[C@H](C(=O)Nc3ccc(Br)cc3)[C@@H]3C=C[C@H]2C32CC2)cc1` (racemic) [Example 97, (5R*)—N^5-(4-Bromophenyl)-(6R*)—N^6-[(4-N-tert-butoxycarbonyl-aminomethyl-phenyl)-methyl]-(4S*,7R*)-[4,7-ethenylene-spiro[2.4]heptane]-5,6-dicarboxamide]: 391 nM and 1430 nM.
On to `CC(C)(C)OC(=O)N1CC(NC(=O)[C@H]2[C@H](C(=O)Nc3ccc(Br)cc3)[C@@H]3C=C[C@H]2C32CC2)C1` (racemic) [Example 98, (5R*)—N^5-(4-Bromophenyl)-(6R*)—N^6—(N-tert-butoxycarbonyl-azetidin-3-yl)-(4S*,7R*)-[4,7-ethenylene-spiro[2.4]heptane]-5,6-dicarboxamide], for which the EC50 amounted to 477 nM at human ALX receptor and 582 nM on human FPRL2.
The matching figures for `Cc1onc(-c2ccccc2)c1CNC(=O)[C@H]1[C@H](C(=O)Nc2ccc(Br)cc2)[C@@H]2C=C[C@H]1C21CC1` (racemic) [Example 101, (5R*)—N^5-(4-Bromophenyl)-(6R*)—N^6-[(5-methyl-3-phenyl-isoxazol-4-yl)-methyl]-(4S*,7R*)-[4,7-ethenylene-spiro[2.4]heptane]-5,6-dicarboxamide]: 812 nM and 457 nM.
The matching figures for `NC(=O)CCNC(=O)[C@H]1[C@H](C(=O)Nc2ccc(Br)cc2)[C@@H]2CC[C@H]1C21CC1` (racemic) [Example 102, (5R*)—N^5-(4-Bromophenyl)-(6R*)—N^6-(2-carbamoyl-ethyl)-(4S*,7R*)-[4,7-ethylene-spiro[2.4]heptane]-5,6-dicarboxamide]: 0.46 nM and > 25000 nM.
For the molecule `COCCCNC(=O)[C@H]1[C@H](C(=O)Nc2ccc(Br)cc2)[C@@H]2CC[C@H]1C21CC1` (racemic) [Example 103, (5R*)—N^5-(4-Bromophenyl)-(6R*)—N^6-(3-methoxy-propyl)-(4S*,7R*)-[4,7-ethylene-spiro[2.4]heptane]-5,6-dicarboxamide], the EC50 on human ALX receptor is 4.8 nM; on human FPRL2 it was 6920 nM.
The corresponding values for `O=C(NCCN1CCNC1=O)[C@H]1[C@H](C(=O)Nc2ccc(Br)cc2)[C@@H]2CC[C@H]1C21CC1` (racemic) [Example 105, (5R*)—N^5-(4-Bromophenyl)-(6R*)—N^6-[(2-imidazolidin-2-on-1-yl)-ethyl]-(4S*,7R*)-[4,7-ethylene-spiro[2.4]heptane]-5,6-dicarboxamide] are 2.4 nM and 3730 nM.
The corresponding values for `O=C(NC1CC1)[C@H]1[C@H](C(=O)Nc2ccc(Br)cc2)[C@@H]2CC[C@H]1C21CC1` (racemic) [Example 106, (5R*)—N^5-(4-Bromophenyl)-(6R*)—N^6-(cyclopropyl)-(4S*,7R*)-[4,7-ethylene-spiro[2.4]heptane]-5,6-dicarboxamide] are 82 nM and 2930 nM.
The corresponding values for `O=C(NCCCO)[C@H]1[C@H](C(=O)Nc2ccc(Br)cc2)[C@@H]2CC[C@H]1C21CC1` (racemic) [Example 107, (5R*)—N^5-(4-Bromophenyl)-(6R*)—N^6-(3-hydroxy-propyl)-(4S*,7R*)-[4,7-ethylene-spiro[2.4]heptane]-5,6-dicarboxamide] are 1.8 nM and 2270 nM.
Consider `O=C(NCCCn1ccnc1)[C@H]1[C@H](C(=O)Nc2ccc(Br)cc2)[C@@H]2CC[C@H]1C21CC1` (racemic) [Example 108, (5R*)—N^5-(4-Bromophenyl)-(6R*)—N^6-(3-(1H-imidazol-1-yl)-propyl)-(4S*,7R*)-[4,7-ethylene-spiro[2.4]heptane]-5,6-dicarboxamide], for which the EC50 on human ALX receptor stood at 4.1 nM; on human FPRL2 it was 1480 nM.
The corresponding values for `CN(C)CCCCCNC(=O)[C@H]1[C@H](C(=O)Nc2ccc(Br)cc2)[C@@H]2CC[C@H]1C21CC1` (racemic) [Example 109, (5R*)—N^5-(4-Bromophenyl)-(6R*)—N^6-(5-(dimethyl-amino)-pentyl)-(4S*,7R*)-[4,7-ethylene-spiro[2.4]heptane]-5,6-dicarboxamide] are 0.7 nM and 666 nM.
In the case of `O=C(NCCCN1CCCC1)[C@H]1[C@H](C(=O)Nc2ccc(Br)cc2)[C@@H]2CC[C@H]1C21CC1` (racemic) [Example 110, (5R*)—N^5-(4-Bromophenyl)-(6R*)—N^6-(3-pyrrolidin-1-yl-propyl)-(4S*,7R*)-[4,7-ethylene-spiro[2.4]heptane]-5,6-dicarboxamide], the EC50 at human ALX receptor came to 16 nM; on human FPRL2, 307 nM.
For the molecule `CN1CCN(CCCNC(=O)[C@H]2[C@H](C(=O)Nc3ccc(Br)cc3)[C@@H]3CC[C@H]2C32CC2)CC1` (racemic) [Example 111, (5R*)—N^5-(4-Bromophenyl)-(6R*)—N^6-(3-(4-methyl-piperazin-1-yl)-propyl)-(4S*,7R*)-[4,7-ethylene-spiro[2.4]heptane]-5,6-dicarboxamide], the figures for the EC50 on human ALX receptor and on human FPRL2 were 1.3 nM and 71 nM, respectively.
Take `O=C(NCCCCN1CCCC1)C1C(C(=O)Nc2ccc(Br)nc2)C2C=CC1C21CC1` (racemic) [Example 114, (5R*)—N^5-(2-Bromopyridin-5-yl)-(6R*)—N^6-(4-pyrrolidin-1-yl-butyl)-(4S*,7R*)-[4,7-ethenylene-spiro[2.4]heptane]-5,6-dicarboxamide]: the EC50 on human ALX receptor came to 1.4 nM; on human FPRL2, 532 nM.
The matching figures for `COc1ccc(NC(=O)C2C(C(=O)NCCCCN3CCCC3)C3C=CC2C32CC2)cc1` (racemic) [Example 115, (5R*)—N^5-(4-Methoxyphenyl)-(6R*)—N^6-(4-pyrrolidin-1-yl-butyl)-(4S*,7R*)-[4,7-ethenylene-spiro[2.4]heptane]-5,6-dicarboxamide]: 2 nM and 204 nM.
The corresponding values for `O=C(NCCCCN1CCCC1)C1C(C(=O)Nc2ccc(Cl)nc2)C2C=CC1C21CC1` (racemic) [Example 116, (5R*)—N^5-(2-Chloro-pyridin-5-yl)-(6R*)—N^6-(4-pyrrolidin-1-yl-butyl)-(4S*,7R*)-[4,7-ethenylene-spiro[2.4]heptane]-5,6-dicarboxamide] are 7.8 nM and 891 nM.
The matching figures for `O=C(NCCCCN1CCCC1)[C@H]1[C@H](C(=O)Nc2ccc3scnc3c2)[C@@H]2C=C[C@H]1C21CC1` (racemic) [Example 117, (5R*)—N^5-(Benzothiazol-5-yl)-(6R*)—N^6-(4-pyrrolidin-1-yl-butyl)-(4S*,7R*)-[4,7-ethenylene-spiro[2.4]heptane]-5,6-dicarboxamide]: 10 nM and 359 nM.
As for `O=C(NCCCCN1CCCC1)C1C(C(=O)NCc2ccc(Br)cc2)C2C=CC1C21CC1` (racemic) [Example 118, (5R*)—N^5-(4-Bromophenyl-methyl)-(6R*)—N^6-(4-pyrrolidin-1-yl-butyl)-(4S*,7R*)-[4,7-ethenylene-spiro[2.4]heptane]-5,6-dicarboxamide], the EC50 at human ALX receptor came out at 47 nM; on human FPRL2 it was 140 nM.

The EC50 is the concentration at which the effect is half-maximal.
